Patent US12076399B2, “Combination therapies for treating cancers” (Cothera Bioscience, Inc., priority 2017, dated 2024)

Experiments:
Experiment in all cases: Ex vivo drug sensitivity test (EdU proliferation, EpCAM+ cells, high-content imaging) on conditionally reprogrammed patient-derived tumor cells
Assay type in all cases: cell-based, human
[1] = test system: patient-derived epithelial tumor cells, gastric; conditions: EpCAM and Edu positive readout, AUC concentration
Text: (§1) Surgical specimen from colorectal cancer patients, liver cancer patients, lung cancer patients, pancreatic cancer, gastric cancer patients and breast cancer patients were obtained from the Beijing Cancer Hospital and the Cancer Hospital of Chinese Academy of Medical Science after receiving patient consensus. Patient-derived xenograft tumor specimens were obtained from Nod/SCID mice inoculated with surgical tumor specimen from patients.
(§2) For ex vivo drug sensitivity assays, the tumor cells were isolated from the patient tissue sample or PDX xenograft tumor tissue. Briefly, the tumor tissues were cut into small pieces less than 1 mm in diameter using scissors. The tumor fragments were transferred into a sterile 100-ml triangle glass flask loaded with a magnet stir bar. A 10-15 ml digestion media containing 0.25 U/ml Liberase DH was added into the minced tumor tissues to start enzyme digestion. The enzyme mixture was incubated at 37° C. for 1-2 hours with moderate stirring. The digested tumor tissue was filtered through a 100-μm cell retainer. The filtrates were re-filtered through a 40-μm cell restrainer. The tumor cell clusters retained on the 40-μm cell restrainer was collected, wash twice with HBSS, then re-suspended in a defined growth media supplemented with several stem cell growth factors.
(§3) The tumor cell clusters retained on the 40-μm cell restrainer were collected, wash twice with HBSS, then re-suspended in a defined growth media supplemented with cell growth factors and small molecule inhibitors. The tumor cell clusters were recovered in a defined growth medium overnight. The defined growth medium was StemPro® hESC SFM (defined, serum- and feeder-free medium (SFM)) supplemented with: Nicotinamide, Wnt3A, Noggin (Bone Morphogenetic Protein (BMP) inhibitor), R-spondin-1 (Wnt/β-catenin signaling agonist), and Y27632 (Rho-associated, coiled-coil containing protein kinase (ROCK-1) inhibitor).
(§4) For conditional reprogramming, the recovered CTOSs were dissociated into single cells and seeded in a feeder cell/Rock inhibitor (Y27632) co-culture system at about 3000 cells per well in cell culture plate, and grow at 37 C for 3 days.
(§5) For ex vivo drug testing, the seeded tumor cells were exposed to seven EGFR inhibitors, three MEK 1/2 inhibitors, and three CDK 4/6 inhibitors alone, or a combination of EGFR inhibitor and MEK 1/2 inhibitor, a combination of EGFR inhibitor and CDK 4/6 inhibitor, a combination of MEK 1/2 inhibitor and CDK 4/6 inhibitor, and a triple combination of EGFR inhibitor, MEK 1/2 inhibitor, and a CDK 4/6 inhibitor for 72 hours. The treated tumor cells were re-exposed to the same drug or drug combination with a fresh media change for another 72 hours. All drugs were prepared in DMSO and the final concentration of DMSO in media was 0.1%. The tested concentration of the drug and drug combinations were at relevant AUC concentration (see Table E1).
(§6) Following exposure with drug, the epithelial tumor cells were labeled with 5-ethynyl-2′-deoxyuridine (Edu) to assess the tumor cell proliferation rates. The labeling lasted 24 hours in the presence of drug exposure. In the control group, epithelial tumor cells received no drug exposure with media change, but were similarly labeled with Edu. The labeled tumor cell were fixed and stained with Hoechst 33342 in blocking buffer containing 0.5% Triton X-100 and 3% BSA overnight at 4° C. The tumor cells were incubated with EpCAM antibody (1:4000) for 2 hours at room temperature and rinsed with PBST. Subsequently, the tumor cells were incubated with Alexa FluorR 647 conjugated goat-anti-mouse secondary antibody for 30 minutes at room temperature and rinsed with PBST.
(§7) The incorporated Edu was detected by Click-iT reaction where fixed cells were incubated with a reaction mixture containing 1× Click-iT Edu reaction buffer, CuSO4, and azide-conjugated Alexa Fluor dye in the dark. The stained cells were washed with PBS two times before image acquisition and analysis. […]

[2] = test system: patient-derived epithelial tumor cells, colon; conditions: EpCAM and Edu positive readout, AUC concentration
Text: as §1, §2, §3, §4, §5, §6, §7

[3] = test system: patient-derived epithelial tumor cells, pancrea; conditions: patient ZKB-011, pancrea; EpCAM and Edu positive readout; AUC concentration
Text: as §1, §2, §3, §4, §5, §6, §7

SMILES: CC(C)(C)c1nc(-c2cccc(NS(=O)(=O)c3c(F)cccc3F)c2F)c(-c2ccnc(N)n2)s1 [D, Dabrafenib]
- Inhibition percentage ([1]; patient NYP-006, gastric): 0.00%
- MI (Maximum Inhibition Index) ([1]; patient NYP-006, gastric): 0.47
- Inhibition percentage ([1]; patient ZKB-165, gastric): 45.31%
- MI (Maximum Inhibition Index) ([1]; patient ZKB-165, gastric): 1.83
- Inhibition percentage ([2]; patient NYL-040, colon): 7.18%
- MI (Maximum Inhibition Index) ([2]; patient NYL-040, colon): 1.08
- Inhibition percentage ([2]; patient NYL-053, colon): 9.11%
- MI (Maximum Inhibition Index) ([2]; patient NYL-053, colon): 1.10
- Inhibition percentage ([2]; patient NYL-109, colon): 34.25%
- MI (Maximum Inhibition Index) ([2]; patient NYL-109, colon): 1.52
- Inhibition percentage ([2]; patient NYL-113, colon): −3.84%
- MI (Maximum Inhibition Index) ([2]; patient NYL-113, colon): 0.96
- Inhibition percentage ([2]; patient NYL-132, colon): 29.59%
- MI (Maximum Inhibition Index) ([2]; patient NYL-132, colon): 1.42
- Inhibition percentage ([2]; patient NYL-149, colon): 75.06%
- MI (Maximum Inhibition Index) ([2]; patient NYL-149, colon): 4.01
- Inhibition percentage ([2]; patient NYL-161, colon): −6.33%
- MI (Maximum Inhibition Index) ([2]; patient NYL-161, colon): 0.94
- Inhibition percentage ([2]; patient NYL-170, colon): 52.58%
- MI (Maximum Inhibition Index) ([2]; patient NYL-170, colon): 2.11
- Inhibition percentage ([2]; patient NYL-HZ-002, colon): 0.00%
- MI (Maximum Inhibition Index) ([2]; patient NYL-HZ-002, colon): 0.83
- Inhibition percentage ([2]; patient ZKB-007, colon): 0.00%
- MI (Maximum Inhibition Index) ([2]; patient ZKB-007, colon): 0.91
- Inhibition percentage ([2]; patient ZKB-070, colon): 15.53%
- MI (Maximum Inhibition Index) ([2]; patient ZKB-070, colon): 1.18
- Inhibition percentage ([2]; patient ZKB-171, colon): 15.07%
- MI (Maximum Inhibition Index) ([2]; patient ZKB-171, colon): 1.18
- Inhibition percentage [3]: 0.00%
- MI (Maximum Inhibition Index) [3]: 1.00

SMILES: CC(=O)c1c(C)c2cnc(Nc3ccc(N4CCNCC4)cn3)nc2n(C2CCCC2)c1=O [P, Palbociclib]
- Inhibition percentage ([1]; patient NYP-006, gastric): 65.36%
- MI (Maximum Inhibition Index) ([1]; patient NYP-006, gastric): 2.89
- Inhibition percentage ([1]; patient ZKB-165, gastric): 86.45%
- MI (Maximum Inhibition Index) ([1]; patient ZKB-165, gastric): 7.38
- Inhibition percentage ([2]; patient CKY-041, colon): 9.05%
- MI (Maximum Inhibition Index) ([2]; patient CKY-041, colon): 1.10
- Inhibition percentage ([2]; patient NYL-040, colon): 85.02%
- MI (Maximum Inhibition Index) ([2]; patient NYL-040, colon): 6.68
- Inhibition percentage ([2]; patient NYL-053, colon): 63.04%
- MI (Maximum Inhibition Index) ([2]; patient NYL-053, colon): 2.71
- Inhibition percentage ([2]; patient NYL-109, colon): 40.42%
- MI (Maximum Inhibition Index) ([2]; patient NYL-109, colon): 1.68
- Inhibition percentage ([2]; patient NYL-113, colon): 44.25%
- MI (Maximum Inhibition Index) ([2]; patient NYL-113, colon): 1.79
- Inhibition percentage ([2]; patient NYL-132, colon): 48.53%
- MI (Maximum Inhibition Index) ([2]; patient NYL-132, colon): 1.94
- Inhibition percentage ([2]; patient NYL-149, colon): 57.40%
- MI (Maximum Inhibition Index) ([2]; patient NYL-149, colon): 2.35
- Inhibition percentage ([2]; patient NYL-161, colon): 26.16%
- MI (Maximum Inhibition Index) ([2]; patient NYL-161, colon): 1.35
- Inhibition percentage ([2]; patient NYL-170, colon): 67.64%
- MI (Maximum Inhibition Index) ([2]; patient NYL-170, colon): 3.09
- Inhibition percentage ([2]; patient NYL-HZ-002, colon): 52.48%
- MI (Maximum Inhibition Index) ([2]; patient NYL-HZ-002, colon): 2.10
- Inhibition percentage ([2]; patient ZKB-007, colon): 66.72%
- MI (Maximum Inhibition Index) ([2]; patient ZKB-007, colon): 3.00
- Inhibition percentage ([2]; patient ZKB-070, colon): 77.00%
- MI (Maximum Inhibition Index) ([2]; patient ZKB-070, colon): 4.35
- Inhibition percentage ([2]; patient ZKB-171, colon): 30.13%
- MI (Maximum Inhibition Index) ([2]; patient ZKB-171, colon): 1.43
- Inhibition percentage [3]: 85.40%
- MI (Maximum Inhibition Index) [3]: 6.85

SMILES: CC(=O)Nc1cccc(-n2c(=O)n(C3CC3)c(=O)c3c(Nc4ccc(I)cc4F)n(C)c(=O)c(C)c32)c1 [T, Trametinib]
- Inhibition percentage ([1]; patient NYP-006, gastric): 0.00%
- MI (Maximum Inhibition Index) ([1]; patient NYP-006, gastric): 0.55
- Inhibition percentage ([1]; patient ZKB-165, gastric): 0.00%
- MI (Maximum Inhibition Index) ([1]; patient ZKB-165, gastric): 0.60
- Inhibition percentage ([2]; patient CKY-041, colon): 5.05%
- MI (Maximum Inhibition Index) ([2]; patient CKY-041, colon): 1.05
- Inhibition percentage ([2]; patient NYL-040, colon): 0.00%
- MI (Maximum Inhibition Index) ([2]; patient NYL-040, colon): 0.85
- Inhibition percentage ([2]; patient NYL-053, colon): 49.02%
- MI (Maximum Inhibition Index) ([2]; patient NYL-053, colon): 1.96
- Inhibition percentage ([2]; patient NYL-109, colon): 86.79%
- MI (Maximum Inhibition Index) ([2]; patient NYL-109, colon): 7.57
- Inhibition percentage ([2]; patient NYL-113, colon): 46.31%
- MI (Maximum Inhibition Index) ([2]; patient NYL-113, colon): 1.86
- Inhibition percentage ([2]; patient NYL-132, colon): 29.60%
- MI (Maximum Inhibition Index) ([2]; patient NYL-132, colon): 1.42
- Inhibition percentage ([2]; patient NYL-149, colon): 75.78%
- MI (Maximum Inhibition Index) ([2]; patient NYL-149, colon): 4.13
- Inhibition percentage ([2]; patient NYL-161, colon): 0.59%
- MI (Maximum Inhibition Index) ([2]; patient NYL-161, colon): 1.01
- Inhibition percentage ([2]; patient NYL-170, colon): 0.00%
- MI (Maximum Inhibition Index) ([2]; patient NYL-170, colon): 0.61
- Inhibition percentage ([2]; patient NYL-HZ-002, colon): 51.53%
- MI (Maximum Inhibition Index) ([2]; patient NYL-HZ-002, colon): 2.06
- Inhibition percentage ([2]; patient ZKB-007, colon): 0.00%
- MI (Maximum Inhibition Index) ([2]; patient ZKB-007, colon): 0.76
- Inhibition percentage ([2]; patient ZKB-070, colon): −34.50%
- MI (Maximum Inhibition Index) ([2]; patient ZKB-070, colon): 0.74
- Inhibition percentage ([2]; patient ZKB-171, colon): 46.02%
- MI (Maximum Inhibition Index) ([2]; patient ZKB-171, colon): 1.85
- Inhibition percentage [3]: 7.36%
- MI (Maximum Inhibition Index) [3]: 1.08
